From patent publication US11370798B2 (Vertex Pharmaceuticals Incorporated, priority 2012, dated 2022)

tested on: HCT116 colorectal cancer cells; test: Cisplatin sensitization assay (96 h cell viability MTS); format: cell-based; details: compound and Cisplatin added simultaneously, Cisplatin sensitization value;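 note: Test-compound concentration that lowers the Cisplatin IC50 by a set fold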
In short: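 Viability read by MTS (1 h at 37° C) after 96 h co-exposure at 37° C, 5% CO2. Test compound and cisplatin were dosed simultaneously in a full concentration matrix, each 2-fold serially diluted from 10 μM final; sensitization values binned in μM.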

Row | SMILES | Cisplatin Sensitization Assay
1 | CN1CCC(OC2CCN(c3ccncc3NC(=O)c3c(N)nn4cc(F)cnc34)CC2)CC1 [I-N-154, 2-amino-6-fluoro-N-(4-(4-((1-methylpiperidin-4-yl)oxy)piperidin-1-yl)pyridin-3-yl)pyrazolo[1,5-a]pyrimidine-3-carboxamide] | +++ (Cisplatin sensitization value of <0.02 μM)
2 | Nc1nn2cc(F)cnc2c1C(=O)Nc1cncc(F)c1N1CCC(S(=O)(=O)N2CCOCC2)CC1 [I-N-155, 2-amino-6-fluoro-N-(5-fluoro-4-(4-(morpholinosulfonyl)piperidin-1-yl)pyridin-3-yl)pyrazolo[1,5-a]pyrimidine-3-carboxamide] | +++ (Cisplatin sensitization value of <0.02 μM)
3 | CN1CCC(C(=O)N2CCN(c3c(F)cncc3NC(=O)c3c(N)nn4cc(F)cnc34)CC2)C1 (stereo not drawn) [I-N-156, 2-amino-6-fluoro-N-(5-fluoro-4-(4-(1-methylpyrrolidine-3-carbonyl)piperazin-1-yl)pyridin-3-yl)pyrazolo[1,5-a]pyrimidine-3-carboxamide] | +++ (Cisplatin sensitization value of <0.02 μM)
4 | CN1CCC[C@H]1C(=O)N1CCN(c2c(F)cncc2NC(=O)c2c(N)nn3cc(F)cnc23)CC1 [I-N-157, (S)-2-amino-6-fluoro-N-(5-fluoro-4-(4-(1-methylpyrrolidine-2-carbonyl)piperazin-1-yl)pyridin-3-yl)pyrazolo[1,5-a]pyrimidine-3-carboxamide] | ++ (Cisplatin sensitization value>0.02 μM but <0.2 μM)
5 | Nc1nn2cc(F)cnc2c1C(=O)Nc1cncc(F)c1N1CCN(S(=O)(=O)C2CCOCC2)CC1 [I-N-158, 2-amino-6-fluoro-N-(5-fluoro-4-(4-((tetrahydro-2H-pyran-4-yl)sulfonyl)piperazin-1-yl)pyridin-3-yl)pyrazolo[1,5-a]pyrimidine-3-carboxamide] | +++ (Cisplatin sensitization value of <0.02 μM)
6 | Nc1nn2cc(F)cnc2c1C(=O)Nc1cncc(F)c1N1CCN(S(=O)(=O)C2CC2)CC1 [I-N-159, 2-amino-N-(4-(4-(cyclopropylsulfonyl)piperazin-1-yl)-5-fluoropyridin-3-yl)-6-fluoropyrazolo[1,5-a]pyrimidine-3-carboxamide] | +++ (Cisplatin sensitization value of <0.02 μM)
7 | Nc1nn2cc(F)cnc2c1C(=O)Nc1cncc(F)c1N1CCN(C(=O)CN2CCC2)CC1 [I-N-160, 2-amino-N-(4-(4-(2-(azetidin-1-yl)acetyl)piperazin-1-yl)-5-fluoropyridin-3-yl)-6-fluoropyrazolo[1,5-a]pyrimidine-3-carboxamide] | +++ (Cisplatin sensitization value of <0.02 μM)
8 | Cc1ncn(-c2ccncc2NC(=O)c2c(N)nn3cc(F)cnc23)n1 [I-N-161, 2-amino-6-fluoro-N-(4-(3-methyl-1H-1,2,4-triazol-1-yl)pyridin-3-yl)pyrazolo[1,5-a]pyrimidine-3-carboxamide] | + (Cisplatin sensitization value>0.2 μM but <5 μM)
9 | Cc1ncnn1-c1ccncc1NC(=O)c1c(N)nn2cc(F)cnc12 [I-N-162, 2-amino-6-fluoro-N-(4-(5-methyl-1H-1,2,4-triazol-1-yl)pyridin-3-yl)pyrazolo[1,5-a]pyrimidine-3-carboxamide] | ++ (Cisplatin sensitization value>0.02 μM but <0.2 μM)
10 | Nc1nn2cc(F)cnc2c1C(=O)Nc1cncc(F)c1N1CCN2C(=O)CCC2C1 (stereo not drawn) [I-N-163, 2-amino-6-fluoro-N-(5-fluoro-4-(6-oxohexahydropyrrolo[1,2-a]pyrazin-2(1H)-yl)pyridin-3-yl)pyrazolo[1,5-a]pyrimidine-3-carboxamide] | +++ (Cisplatin sensitization value of <0.02 μM)
11 | CN1CC(OC2CCN(c3ccncc3NC(=O)c3c(N)nn4cc(F)cnc34)CC2)C1 [I-N-164, 2-amino-6-fluoro-N-(4-(4-((1-methylazetidin-3-yl)oxy)piperidin-1-yl)pyridin-3-yl)pyrazolo[1,5-a]pyrimidine-3-carboxamide] | +++ (Cisplatin sensitization value of <0.02 μM)
12 | CS(=O)(=O)C1CCN(c2c(F)cncc2NC(=O)c2c(N)nn3cc(F)cnc23)CC1 [I-N-165, 2-amino-6-fluoro-N-(5-fluoro-4-(4-(methylsulfonyl)piperidin-1-yl)pyridin-3-yl)pyrazolo[1,5-a]pyrimidine-3-carboxamide] | +++ (Cisplatin sensitization value of <0.02 μM)
13 | CN1CCN(S(=O)(=O)C2CCN(c3c(F)cncc3NC(=O)c3c(N)nn4cc(F)cnc34)CC2)CC1 [I-N-166, 2-amino-6-fluoro-N-(5-fluoro-4-(4-((4-methylpiperazin-1-yl)sulfonyl)piperidin-1-yl)pyridin-3-yl)pyrazolo[1,5-a]pyrimidine-3-carboxamide] | +++ (Cisplatin sensitization value of <0.02 μM)
14 | Nc1nn2cc(F)cnc2c1C(=O)Nc1cncc(F)c1N1CCC(OCCN2CCCC2)CC1 [I-N-167, 2-amino-6-fluoro-N-(5-fluoro-4-(4-(2-(pyrrolidin-1-yl)ethoxy)piperidin-1-yl)pyridin-3-yl)pyrazolo[1,5-a]pyrimidine-3-carboxamide] | +++ (Cisplatin sensitization value of <0.02 μM)
15 | Nc1nn2cc(F)cnc2c1C(=O)Nc1cncc(F)c1N1CCN(C(=O)C2CNC2)CC1 [I-N-168, 2-amino-N-(4-(4-(azetidine-3-carbonyl)piperazin-1-yl)-5-fluoropyridin-3-yl)-6-fluoropyrazolo[1,5-a]pyrimidine-3-carboxamide] | + (Cisplatin sensitization value>0.2 μM but <5 μM)
16 | Nc1nn2cc(F)cnc2c1C(=O)Nc1cncc(F)c1N1CCC(S(=O)(=O)N2CCC2)CC1 [I-N-169, 2-amino-N-(4-(4-(azetidin-1-ylsulfonyl)piperidin-1-yl)-5-fluoropyridin-3-yl)-6-fluoropyrazolo[1,5-a]pyrimidine-3-carboxamide] | +++ (Cisplatin sensitization value of <0.02 μM)
17 | Nc1nn2cc(F)cnc2c1C(=O)Nc1cnccc1N1CCC(S(=O)(=O)N2CCOCC2)CC1 [I-N-170, 2-amino-6-fluoro-N-(4-(4-(morpholinosulfonyl)piperidin-1-yl)pyridin-3-yl)pyrazolo[1,5-a]pyrimidine-3-carboxamide] | +++ (Cisplatin sensitization value of <0.02 μM)
18 | CN1CCN(CC2CCN(c3c(F)cncc3NC(=O)c3c(N)nn4cc(F)cnc34)CC2)CC1=O [I-N-171, 2-amino-6-fluoro-N-(5-fluoro-4-(4-((4-methyl-3-oxopiperazin-1-yl)methyl)piperidin-1-yl)pyridin-3-yl)pyrazolo[1,5-a]pyrimidine-3-carboxamide] | +++ (Cisplatin sensitization value of <0.02 μM)
19 | Nc1nn2cc(F)cnc2c1C(=O)Nc1cncc(F)c1N1CCN(C(=O)C2CNCCO2)CC1 (stereo not drawn) [I-N-172, 2-amino-6-fluoro-N-(5-fluoro-4-(4-(morpholine-2-carbonyl)piperazin-1-yl)pyridin-3-yl)pyrazolo[1,5-a]pyrimidine-3-carboxamide] | +++ (Cisplatin sensitization value of <0.02 μM)
20 | CN1CCCCC1C(=O)N1CCN(c2c(F)cncc2NC(=O)c2c(N)nn3cc(F)cnc23)CC1 (stereo not drawn) [I-N-173, 2-amino-6-fluoro-N-(5-fluoro-4-(4-(1-methylpiperidine-2-carbonyl)piperazin-1-yl)pyridin-3-yl)pyrazolo[1,5-a]pyrimidine-3-carboxamide] | +++ (Cisplatin sensitization value of <0.02 μM)
21 | CN1CCOC(C(=O)N2CCN(c3c(F)cncc3NC(=O)c3c(N)nn4cc(F)cnc34)CC2)C1 (stereo not drawn) [I-N-174, 2-amino-6-fluoro-N-(5-fluoro-4-(4-(4-methylmorpholine-2-carbonyl)piperazin-1-yl)pyridin-3-yl)pyrazolo[1,5-a]pyrimidine-3-carboxamide] | +++ (Cisplatin sensitization value of <0.02 μM)
22 | CN1CCC(S(=O)(=O)N2CCN(c3c(F)cncc3NC(=O)c3c(N)nn4cc(F)cnc34)CC2)CC1 [I-N-175, 2-amino-6-fluoro-N-(5-fluoro-4-(4-((1-methylpiperidin-4-yl)sulfonyl)piperazin-1-yl)pyridin-3-yl)pyrazolo[1,5-a]pyrimidine-3-carboxamide] | +++ (Cisplatin sensitization value of <0.02 μM)
23 | Nc1nn2cc(F)cnc2c1C(=O)Nc1cnccc1N1CCN(S(=O)(=O)C2CC2)CC1 [I-N-176, 2-amino-N-(4-(4-(cyclopropylsulfonyl)piperazin-1-yl)pyridin-3-yl)-6-fluoropyrazolo[1,5-a]pyrimidine-3-carboxamide] | +++ (Cisplatin sensitization value of <0.02 μM)
24 | Nc1nn2cc(F)cnc2c1C(=O)Nc1cnccc1N1CCN(S(=O)(=O)C2CCOCC2)CC1 [I-N-177, 2-amino-6-fluoro-N-(4-(4-((tetrahydro-2H-pyran-4-yl)sulfonyl)piperazin-1-yl)pyridin-3-yl)pyrazolo[1,5-a]pyrimidine-3-carboxamide] | +++ (Cisplatin sensitization value of <0.02 μM)
25 | CS(=O)(=O)N1CCN(c2ccncc2NC(=O)c2c(N)nn3cc(F)cnc23)CC1 [I-N-178, 2-amino-6-fluoro-N-(4-(4-(methylsulfonyl)piperazin-1-yl)pyridin-3-yl)pyrazolo[1,5-a]pyrimidine-3-carboxamide] | +++ (Cisplatin sensitization value of <0.02 μM)
26 | Nc1nn2cc(F)cnc2c1C(=O)Nc1cnccc1N1CCN(S(=O)(=O)C2CCOC2)CC1 (stereo not drawn) [I-N-179, 2-amino-6-fluoro-N-(4-(4-((tetrahydrofuran-3-yl)sulfonyl)piperazin-1-yl)pyridin-3-yl)pyrazolo[1,5-a]pyrimidine-3-carboxamide] | +++ (Cisplatin sensitization value of <0.02 μM)
27 | CN1CCC[C@@H]1C(=O)N1CCN(c2c(F)cncc2NC(=O)c2c(N)nn3cc(F)cnc23)CC1 [I-N-181, (R)-2-amino-6-fluoro-N-(5-fluoro-4-(4-(1-methylpyrrolidine-2-carbonyl)piperazin-1-yl)pyridin-3-yl)pyrazolo[1,5-a]pyrimidine-3-carboxamide] | +++ (Cisplatin sensitization value of <0.02 μM)
